Measurements reported in patent publication EP1020531A2, “Use of spore adhesion assays in fungicide screening” (priority 1999, dated 2000).
Converted amounts (≈) assume the structure as drawn.

How the values were obtained:
[1] = tested on: Colletotrichum lagenarium; assay: Mycelial growth inhibition, poison agar assay; format: cell-based
[2] = tested on: Colletotrichum lagenarium spores; format: cell-based; details: SDB with Tween 20 (40 ppm), 8 h
Botrytis cinerea spores [3] = assay: Spore adhesion assay in 96-well polystyrene microtiter plates (sulforhodamine B); format: cell-based; details: 25°C, 5.5 hours; for EC50: Botrytis cinerea, read-out: Inhn. of Spore Adhesion (EC50, ppm) Microtiter plates
Experimental: (§1) Botrytis cinerea was grown at room temperature under fluorescent lights on potato dextrose agar (PDA), and subcultured every 14 days. To prepare spore suspensions, 20 ml sterile milliQ™ water was added to plates (10-14 days old) and the surface scraped gently with a sterile loop. The fluid was filtered through glass wool to remove mycelial fragments, then the spore density was adjusted to the desired concentration.
(§2) For adhesion assays in microtiter plates, stock solutions of test compounds were prepared in DMSO then diluted in SDB such that the DMSO concentration after dilution was ≤2%. Two-fold serial dilutions of these test compound solutions were made in SDB (100 µl) in 96-well flat-bottomed microtiter plates. Spore suspension (100 µl at 2X10^5 spores/ml) was added to the wells, and the plates were incubated at 25°C for 5.5 hours. The medium containing unbound spores was removed by inverting and flicking the microtiter plate to remove as much liquid as possible.

[4] = tested on: Colletotrichum lagenarium spores; assay: Spore adhesion assay in 96-well polystyrene microtiter plates; format: cell-based; details: for Inhn. of Adhesion (EC50, ppm) Microtiter plates: SDB with Tween 20 (40 ppm), 8 h
Experimental: as §2
Colletotrichum lagenarium was grown at 25°C in the dark on potato dextrose agar and subcultured every 7-14 days. To prepare spore suspensions, 15 ml sterile water was added to plates (7-10 days old) and the plates agitated gently on a gyrotary shaker for 10 min to release spores. The resulting spore suspension was filtered through glass wool and adjusted to the desired concentration. Spore adhesion assays and germination assays were conducted as outlined in Example 1 for Botrytis except that the SDB medium contained Tween™ 20 (40 ppm), and the spore inoculum was prepared at 5X10^5 spores/ml. Data in the table below show a time-dependent adhesion of spores to the slide which closely parallels the time-course for spore germination.
Various fungicides were evaluated for their abilities to inhibit spore adhesion in 96-well flat-bottomed polystyrene microtiter plates and Permanox® chamber slides, and for their effects on spore germination and mycelial growth. Assays were conducted as outlined in Example 2 for Botrytis except that the SDB medium contained Tween™ 20 (40 ppm), the spore inoculum was prepared at 5X10^5 spores/ml, and 8 h incubation was used for the adhesion and germination assays. For each compound tested, EC50 values for inhibition of adhesion to microtiter plates and chamber slides were similar. Spore adhesion was sensitive to all compounds which inhibited germination at low concentrations (<0.2 ppm).

Magnaporthe grisea = format: cell-based; details: for EC50 (ppm): inhibition of adhesion, YEG, 25°C, 6 hours; for inhibition of germination-associated adhesion: statement in words
Botrytis cinerea spores [5] = assay: microbe, parasite or virus in culture; format: cell-based; details: 5.5 h; for EC50: Botrytis cinerea, read-out: Inhn. of Spore Adhesion (EC50, ppm) Chamber Slides
Botrytis cinerea spores [6] = assay: Spore adhesion assay in polystyrene counting vials (Coulter Counter); format: cell-based; details: 25°C, 5.5 h; for EC50: Botrytis cinerea, read-out: Inhn. of Spore Adhesion (EC50, ppm) Counting vials
Experimental: as §1
Various fungicides were evaluated for their abilities to inhibit germination-associated spore adhesion to polystyrene counting vials, polymethylpentene (Permanox®) chamber slides and 96-well flat-bottomed polystyrene microtiter plates, and for their effects on spore germination and mycelial growth (table below). Adhesion assays in chamber slides and germination assays were performed as in Example 1 with incubation at 25°C for 5.5 h. Adhesion assays in counting vials were conducted in 20 ml capacity polystyrene counting vials (VWR cat. no. 14310-640). Counting vials received 5 µl of DMSO (controls) or test compound dissolved in DMSO, followed by 500 µl of SDB. Aqueous spore suspension (500 µl) at 200,000 spores/ml was added, mixed gently and the vials or slides incubated at 25°C for 5.5 h. To determine the numbers of unbound spores 15 ml of counting fluid was added, vials were capped and inverted gently 5 times, then counted using a Coulter Counter®.

[7] = tested on: Colletotrichum lagenarium spores; assay: Spore germination assay; format: cell-based; details: for Germination EC50 (ppm): 8 h
Botrytis cinerea spores [8] = assay: Spore germination assay (microscopic examination); format: cell-based; details: 25°C, 5.5 h; for EC50: Botrytis cinerea, read-out: Inhn. of Germination EC50 (ppm)
Botrytis = assay: Mycelial growth inhibition, poison agar assay; details: for EC50: Botrytis, 72 h, read-out: Mycelial Growth Inhn. EC50 (ppm)
Experimental: Inhibition of mycelial growth was evaluated in poison agar assays. A 4-fold dilution series of each fungicide to be tested was prepared in DMSO and 125 µl of each dilution was added to 25 ml of molten malt extract agar (20 g malt extract, 20 g glucose, 1 g peptone and 20 g agar per liter). The medium containing test compound was poured immediately into 9 cm diameter petri dishes. Two replicate plates were used for each treatment. Each plate was inoculated with a 7 mm diameter plug taken from the growing edge of a Botrytis culture on PDA. Colony diameters were measured after growth for 3 days in the dark at 25°C. EC50 values were determined from dose-response curves.

[9] = tested on: Aspergillus nidulans spores; assay: Spore adhesion assay in 96-well polystyrene microtiter plates; format: cell-based; details: statement in words
Experimental: as §2
Various fungicides were evaluated for their abilities to inhibit spore adhesion in 96-well flat-bottomed polystyrene microtiter plates. Adhesion assays were conducted as outlined in Example 2 for Botrytis except that the spore inoculum was prepared at 2X10^6 spores/ml, and plates were incubated at 37°C for 8 h.

Puccinia recondita = assay: Germination-associated spore adhesion assay in microtiter plates (sulforhodamine B); format: cell-based; details: for EC50 (ppm): inhibition of adhesion, 0.05% Tween 20, 19°C, 4 hours; for inhibition of germination-associated adhesion: statement in words
Candida albicans = details: dacron fibers; Vuddhakel et al. (1988); cited from earlier work
[10] = tested on: Pyricularia oryzae appressoria; details: Inoue et al., Pesticide Science 19, 145-152 (1987); cited from earlier work

Compound | EC50 (Botrytis cinerea spores [3]) [µg/mL] | EC50 (Botrytis cinerea spores [8]) [µg/mL] | EC50 (Botrytis) [µg/mL] | EC50 (ppm) (Puccinia recondita) | inhibition of germination-associated adhesion (Puccinia recondita) | EC50 (Botrytis cinerea spores [5]) [µg/mL] | EC50 (Botrytis cinerea spores [6]) [µg/mL] | also measured
CO/C=C(/C(=O)OC)c1ccccc1Oc1cc(Oc2ccccc2C#N)ncn1 [Azoxystrobin] |  |  |  |  |  |  |  | Mycelial Growth Inhn. EC50 (ppm) [1]: >10 ppm; Inhn. of Adhesion (EC50, ppm) Chamber slides [2]: 0.014 ppm; Inhn. of Spore Adhesion (EC50, ppm) Microtiter plates (Botrytis cinerea spores [3]): 0.19 ppm; Inhn. of Adhesion (EC50, ppm) Microtiter plates [4]: 0.027 ppm; EC50 (ppm) (Magnaporthe grisea): 0.064 ppm; inhibition of germination-associated adhesion (Magnaporthe grisea): potent inhibitors of germination-associated adhesion; Inhn. of Spore Adhesion (EC50, ppm) Chamber Slides (Botrytis cinerea spores [5]; Permanox chamber slides, 25°C): 0.28 ppm; Inhn. of Spore Adhesion (EC50, ppm) Counting vials (Botrytis cinerea spores [6]): 0.19 ppm; Germination EC50 (ppm) ([7]; 40 ppm): 0.010 ppm; Inhn. of Germination EC50 (ppm) (Botrytis cinerea spores [8]): 0.32 ppm; Mycelial Growth Inhn. EC50 (ppm) (Botrytis; malt extract agar, 3 days, 25°C): 3.05 ppm
COC(=O)Nc1nc2ccccc2[nH]1 [Carbendazim] | > 10 | > 25 | 0.045 (≈ 0.235 µM) |  |  |  |  | Mycelial Growth Inhn. EC50 (ppm) [1]: 0.060 ppm; Inhn. of Adhesion (EC50, ppm) Chamber slides [2]: >10 ppm; Inhn. of Adhesion (EC50, ppm) Microtiter plates [4]: 1.96 ppm; activity in the spore adhesion assay ([4]; statement in words on adhesion to microtiter plates and chamber slides): little or no activity; Germination EC50 (ppm) ([7]; SDB with Tween 20 (40 ppm)): >10 ppm; inhibition of germination ([7]; statement in words): did not inhibit germination
N#Cc1c(Cl)c(Cl)c(Cl)c(C#N)c1Cl [Chlorothalonil] | 0.1 (≈ 0.376 µM) | 0.067 (≈ 0.252 µM) | 0.35 (≈ 1.32 µM) | 0.473 | inhibited germination-associated adhesion | 0.089 (≈ 0.335 µM) | 0.093 (≈ 0.35 µM) | Mycelial Growth Inhn. EC50 (ppm) [1]: 7.10 ppm; Inhn. of Adhesion (EC50, ppm) Chamber slides [2]: 0.104 ppm; Inhn. of Adhesion (EC50, ppm) Microtiter plates [4]: 0.068 ppm; inhibition of spore adhesion [9]: highly potent inhibitors of spore adhesion; EC50 (ppm) (Magnaporthe grisea): 0.038 ppm; inhibition of germination-associated adhesion (Magnaporthe grisea): potent inhibitors of germination-associated adhesion; Germination EC50 (ppm) ([7]; SDB with Tween 20 (40 ppm)): 0.005 ppm
N#Cc1c[nH]cc1-c1cccc(Cl)c1Cl [Fenpiclonil] | 0.09 (≈ 0.38 µM) | < 0.0312 | 0.0015 (≈ 0.00633 µM) |  |  | 1.89 (≈ 7.97 µM) | 0.096 (≈ 0.405 µM) | 
O=[N+]([O-])c1cc(C(F)(F)F)c(Cl)c([N+](=O)[O-])c1Nc1ncc(C(F)(F)F)cc1Cl [Fluazinam] | 0.051 (≈ 0.11 µM) | 0.028 (≈ 0.0602 µM) | 0.033 (≈ 0.071 µM) | 0.365 | inhibited germination-associated adhesion | 0.071 (≈ 0.153 µM) | 0.041 (≈ 0.0882 µM) | Mycelial Growth Inhn. EC50 (ppm) [1]: 0.017 ppm; Inhn. of Adhesion (EC50, ppm) Chamber slides [2]: 0.007 ppm; Inhn. of Adhesion (EC50, ppm) Microtiter plates [4]: <0.019 ppm; inhibition of spore adhesion [9]: highly potent inhibitors of spore adhesion; Germination EC50 (ppm) ([7]; SDB with Tween 20 (40 ppm)): 0.004 ppm
O=C1c2ccccc2C(=O)N1SC(Cl)(Cl)Cl [Folpet] | 0.33 (≈ 1.11 µM) | 0.15 (≈ 0.506 µM) | 5.5 (≈ 18.5 µM) |  |  | 0.22 (≈ 0.742 µM) | 0.21 (≈ 0.708 µM) | 
Cc1cc(C)nc(Nc2ccccc2)n1 [Pyrimethanil] | > 10 | 8.6 (≈ 43.2 µM) | 0.48 (≈ 2.41 µM) |  |  | > 25 | > 25 | 
CN(C)C(=S)SSC(=S)N(C)C [Thiram] | 1.86 (≈ 7.74 µM) | < 0.625 | 0.78 (≈ 3.24 µM) |  |  | 1.87 (≈ 7.78 µM) | 1.04 (≈ 4.33 µM) | 
C=CC1(C)OC(=O)N(c2cc(Cl)cc(Cl)c2)C1=O (stereo not drawn) [Vinclozolin] | 0.62 (≈ 2.17 µM) | < 0.5 | 0.11 (≈ 0.384 µM) |  |  | > 5 | 0.56 (≈ 1.96 µM) | 
CCC(C)(C)c1ccc(CC(C)CN2C[C@@H](C)O[C@@H](C)C2)cc1 (stereo partly drawn) [amorolfine] |  |  |  |  |  |  |  | Candida adherence (Candida albicans): inhibit Candida adherence
CC1=C(C(=O)Nc2ccccc2)SCCO1 [carboxin] |  |  |  | 0.081 | inhibited germination-associated adhesion |  |  | 
Cn1c(=O)sc2cccc(Cl)c21 [chlobenthiazone] |  |  |  |  |  |  |  | adhesion of Pyricularia oryzae appressoria to barley leaves [10]: inhibited adhesion
N#CC(CCc1ccc(Cl)cc1)(Cn1cncn1)c1ccccc1 (stereo not drawn) [fenbuconazole] |  |  |  | 9.2 | little or no activity |  |  | 
CCCCC(C#N)(Cn1cncn1)c1ccc(Cl)cc1 (stereo not drawn) [myclobutanil] |  |  |  | >10 | little or no activity |  |  | 
CCCN(CCOc1c(Cl)cc(Cl)cc1Cl)C(=O)n1ccnc1 [prochloraz] |  |  |  |  |  |  |  | EC50 (ppm) (Magnaporthe grisea): >10.0 ppm; inhibition of germination-associated adhesion (Magnaporthe grisea): little or no activity
Cc1nc(C(F)(F)F)c(C(=O)Nc2c(Br)cc(OC(F)(F)F)cc2Br)s1 [thifluzamide] |  |  |  | 0.043 | inhibited germination-associated adhesion |  |  | 
COC(=O)NC(=S)Nc1ccccc1NC(=S)NC(=O)OC [thiophanate-methyl] |  |  |  |  |  |  |  | EC50 (ppm) (Magnaporthe grisea): 7.5 ppm; inhibition of germination-associated adhesion (Magnaporthe grisea): little or no activity
Cc1cccc2sc3nncn3c12 [tricyclazole] |  |  |  |  |  |  |  | adhesion of Pyricularia oryzae appressoria to barley leaves [10]: inhibited adhesion
mancozeb |  |  |  | 0.56 | inhibited germination-associated adhesion |  |  | EC50 (ppm) (Magnaporthe grisea): 0.115 ppm; inhibition of germination-associated adhesion (Magnaporthe grisea): potent inhibitors of germination-associated adhesion
